# Source: patent US10329309B2, “3-(3H-imidazo[4,5-B]pyridin-2-yl)-1H-pyrazolo[4,3-B]pyridines and therapeutic uses thereof” (Samumed, LLC, priority 2015, dated 2019)
# Assays:
# Type in all cases: cell-based
# [1] = tested on: Wnt activity (Sp5-Luc reporter, SW480 colon carcinoma cells); experiment: Screening assay for Wnt activity: Sp5-Luc reporter gene assay in SW480 cells; settings: Homo sapiens, overnight incubation, 10-point dose-response from 10 μM
# From the text: The screening assay for Wnt activity is described as follows. Reporter cell lines can be generated by stably transducing cancer cell lines (e.g., colon cancer) or primary cells (e.g., IEC-6 intestinal cells) with a lentiviral construct that includes a Wnt-responsive promoter driving expression of the firefly luciferase gene.
# SW480 colon carcinoma cells were transduced with a lentiviral vector expressing luciferase with a human Sp5 promoter consisting of a sequence of eight TCF/LEF binding sites. SW480 cells stably expressing the Sp5-Luc reporter gene and a hygromycin resistance gene were selected by treatment with 150 μg/mL of hygromycin for 7 days. These stably transduced SW480 cells were expanded in cell culture and used for all further screening activities. Each compound was dissolved in DMSO as a 10 mM stock and used to prepare compound source plates. Serial dilution (1:3, 10-point dose-response curves starting from 10 μM) and compound transfer was performed using the ECHO 550 (Labcyte, Sunnyvale, Calif.) into 384-well white solid bottom assay plates (Greiner Bio-One) with appropriate DMSO backfill for a final DMSO concentration of 0.1%. For Sp5-Luc reporter gene assays, the cells were plated at 4,000 cells/well in 384-well plates with medium containing 1% fetal bovine serum and incubated overnight at 37° C. and 5% CO2. Following incubation, 20 μl of BrightGlo luminescence reagent (Promega) was added to each well of the 384-well assay plates. The plates were placed on an orbital shaker for 2 min and then luminescence was quantified using the Envision (Perkin Elmer) plate reader. Readings were normalized to DMSO only treated cells, and normalized activities were utilized for EC50 calculations using the dose-response log (inhibitor) vs. response -variable slope (four parameters) nonlinear regression feature available in GraphPad Prism 5.0 (or Dotmatics). For EC50 of >10 μM, the percent inhibition at 10 μM is provided.
# SW480 colon cancer cells = experiment: Cell viability assay (CellTiter-Blue), four days; settings: Homo sapiens, 96 h, CellTiter-Blue cell viability
# Protocol: Representative compounds were screened using the following assay procedure to assess the effect on cell viability as described below.
# Each compound was dissolved in DMSO as a 10 mM stock and used to prepare compound source plates. Serial dilution (1:3, 8-point dose-response curves from 10 μM to 0.0045 μM) and compound transfer was performed using the ECHO 550 (Labcyte, Sunnyvale, Calif.) into 96-well clear bottom, black-walled plates (Corning-Costar).
# Approximately 2×10^3 SW480 colon cancer cells were seeded into each well and allowed to incubate in the presence or absence of compound for four days at 37° C./5% CO2. Eight replicates of DMSO-treated cells served as controls and cells treated with compound were performed in duplicate.
# After incubation, 20 μL of CellTiter-Blue (Promega) was added to each well allowed to incubate for approximately 3 hours. This reagent was a buffered solution which contains resazurin, metabolically active cells were able to reduce rezarurin (blue) into resorufin (pink) which was highly fluorescent. This measured fluorescence was used as a readout for cell viability.
# After incubation, the plates were read at Ex 560 nm Em 590 nm (Cytation 3, BioTek). Dose-response curves were generated and EC50 concentration values were calculated using non-linear regression curve fit in the GraphPad Prism (San Diego, Calif.) or Dotmatics' Studies Software (Bishops Stortford, UK). For EC50 of >10 μM, the percent inhibition at 10 μM is provided.
# [2] = tested on: primary human fibroblasts derived from IPF patients (LL29 cells), α-smooth muscle actin (αSMA); experiment: Inhibition of the fibrotic process: TGF-β1-treated primary human fibroblasts from IPF patients, αSMA staining; settings: Fibroblast, 96 h, LL29 fibroblasts from IPF patients, TGF-β1 20 ng/mL, 4 days, inhibition of fibrotic process
# From the text: Representative compounds were screened using primary human fibroblasts (derived from IPF patients) treated with TGF-β1 to determine their ability to inhibit the fibrotic process.
# Primary human fibroblasts derived from IPF patients (LL29 cells) [^1Xiaoqiu Liu, et. al., “Fibrotic Lung Fibroblasts Show Blunted Inhibition by cAMP Due to Deficient cAMP Response Element-Binding Protein Phosphorylation”, Journal of Pharmacology and Experimental Therapeutics (2005), 315(2), 678-687; ^2Watts, K. L., et. al., “RhoA signaling modulates cyclin D1 expression in human lung fibroblasts; implications for idiopathic pulmonary fibrosis”, Respiratory Research (2006), 7(1), 88] were obtained from American Type Culture Collection (ATCC) and expanded in F12 medium supplemented with 15% Fetal Bovine Serum and Penicillin/Streptomycin.
# Each compound was dissolved in DMSO as a 10 mM stock and used to prepare compound source plates. Serial dilution (1:2, 11-point dose-response curves from 10 μM to 1.87 nM) and compound transfer was performed using the ECHO 550 (Labcyte, Sunnyvale, Calif.) into 384-well clear bottom assay plates (Greiner Bio-One) with appropriate DMSO backfill for a final DMSO concentration of 0.1%. LL29 cells are plated at 1,500 cells/well in 80 μL/well F12 medium supplemented with 1% Fetal Bovine Serum. One hour after addition of the cells, TGF-β1 (Peprotech; 20 ng/mL) was added to the plates to induce fibrosis (ref. 1 and 2 above). Wells treated with TGF-β1 and containing DMSO were used as controls. Cells were incubated at 37° C. and 5% CO2 for 4 days. Following incubation for 4 days, SYTOX green nucleic acid stain (Life Technologies [Thermo Fisher Scientific]) was added to the wells at a final concentration of 1 μM and incubated at room temperature for 30 min. Cells were then fixed using 4% formaldehyde (Electron Microscopy Sciences), washed 3 times with PBS followed by blocking and permeabilization using 3% Bovine Serum Albumin (BSA; Sigma) and 0.3% Triton X-100 (Sigma) in PBS. Cells were then stained with antibody specific to α-smooth muscle actin (αSMA; Abcam) (ref. 1 and 2 above) in 3% Bovine Serum Albumin (BSA; Sigma) and 0.3% Triton X-100 (Sigma) in PBS, and incubated overnight at 4° C. Cells were then washed 3 times with PBS, followed by incubation with Alexa Flor-647 conjugated secondary antibody (Life Technologies [Thermo Fisher Scientific]) and DAPI at room temperature for 1 hour. Cells were then washed 3 times with PBS and plates were sealed for imaging. αSMA staining was imaged by excitation at 630 nm and emission at 665 nm and quantified using the Compartmental Analysis program on the CellInsight CX5 (Thermo Scientific). Dead or apoptotic cells were excluded from analysis based on positive SYTOX green staining. % of total cells positive for αSMA were counted in each well and normalized to the average of 11 wells treated with TGF-β1 on the same plate using Dotmatics' Studies Software. The normalized averages (fold change over untreated) of 3 replicate wells for each compound concentration were used to create dose-responses curves and EC50 values were calculated using non-linear regression curve fit in the Dotmatics' Studies Software. For EC50 of >10 μM, the percent inhibition at 10 μM is provided.
# IL-6 (THP-1 cells) = experiment: Inhibition of IL-6 in LPS-stimulated THP-1 monocytes (HTRF); settings: Homo sapiens, LPS 500 ng/mL, IL-6 by HTRF
# Protocol: Human monocyte cell line (THP-1 cells; Catalog # TIB-202, ATCC, Manassas, Va.) were cultured in Roswell Park Memorial Institute (RPMI) 1640 Medium (Catalog #21870-100, Buffalo, N.Y.) with 1% L-glutamine, 1% HEPES, 1% Sodium Pyruvate, 2% Sodium Bicarbonate supplemented with 100 units/mL penicillin, 50 μg/mL streptomycin, 2-mercaptoethanol (0.05 mM) [basal medium] and 10% fetal bovine serum (Catalog #16140089, Life Technologies, Carlsbad, Calif.) at 37° C. and 5% CO2.
# THP-1 cells were cultured in basal media with 1% FBS for 24 hours before the start of the assay. Each compound was dissolved in DMSO as a 10 mM stock and used to prepare compound source plates. Serial dilution (1:3, 10-point dose-response curves starting from 10 μM) and compound transfer was performed using the ECHO 550 (Labcyte, Sunnyvale, Calif.) into 384-well white low volume assay plates (Greiner Bio-One) with appropriate DMSO backfill for a final DMSO concentration of 0.1%. THP-1 cells were plated at 5000 cells/well in the 384-well plates and incubated at 37° C. for 2 h. 500 ng/mL of LPS was added after 2 hours and cells were incubated for another 22 hours at 37° C. Plates were spun in a centrifuge for 1 minute at […] and a mixture of anti-IL6 XL665, and anti-IL6 Cryptate diluted in reconstitution buffer (Cisbio Inc.) was added to each well. Following incubation for 3 hrs at room temperature, Homogeneous Time-Resolved Fluorescence (HTRF) was measured using the Envision (Perkin Elmer) at 665 nm and […]. The ratio of fluorescence at 665 nm to 620 nm was used as a readout for IL6 quantification. All samples were processed in duplicate. Readings were normalized to DMSO treated cells and normalized activities were utilized for EC50 calculations using the dose-response log (inhibitor) vs. response -variable slope (four parameters) nonlinear regression feature available in GraphPad Prism 5.0 (or Dotmatics). For EC50 of >10 μM, the percent inhibition at 10 μM is provided.
Structure (SMILES),EC50 [1] [µM],EC50 (SW480 colon cancer cells) [µM],EC50 [2] [µM],EC50 (IL-6 (THP-1 cells)) [µM]
"Cc1ccc(-c2ccnc3[nH]c(-c4n[nH]c5ccc(C6=CCNCC6)nc45)nc23)s1 [Compound 730, 3-(7-(5-Methylthiophen-2-yl)-3H-imidazo[4,5-b]pyridin-2-yl)-5-(1,2,3,6-tetrahydropyridin-4-yl)-1H-pyrazolo[4,3-b]pyridine]",3.17,3.48,0.489,0.558
"Cc1ncc(-c2ccc3[nH]nc(-c4nc5c(-c6cc(F)cc(NCCN(C)C)c6)ccnc5[nH]4)c3n2)n1C [Compound 781, N^1-(3-(2-(5-(1,2-Dimethyl-1H-imidazol-5-yl)-1H-pyrazolo[4,3-b]pyridin-3-yl)-3H-imidazo[4,5-b]pyridin-7-yl)-5-fluorophenyl)-N^2,N^2-dimethylethane-1,2-diamine]",0.62,0.927,4.8,0.638
"CN(C)CCNc1cc(F)cc(-c2ccnc3[nH]c(-c4n[nH]c5ccc(-c6cncc(OCc7ccccc7)c6)nc45)nc23)c1 [Compound 790, N^1-(3-(2-(5-(5-(Benzyloxy)pyridin-3-yl)-1H-pyrazolo[4,3-b]pyridin-3-yl)-3H-imidazo[4,5-b]pyridin-7-yl)-5-fluorophenyl)-N^2,N^2-dimethylethane-1,2-diamine]",2.66,2.22,2.5,4.77
